According to a compilation of properties of binary mixtures (doi:10.1021/acs.jced.0c00447):

Experiment: xn = mol fraction of the nth substance listed
Conditions: 100 kPa

OCC(F)(F)F + CC[n+]1ccn(C)c1.N#C[N-]C#N
x2 = 0
Conditions | speed of sound [m/s] | viscosity [mPa·s]
303.15 K | 819.3 | 1.56
313.15 K | 792.3 | 1.23
318.15 K | 778.8 | 1.1
323.15 K | 765.1 | 0.99

CC[n+]1ccn(C)c1.N#C[N-]C#N + OCC(F)(F)F
Conditions | speed of sound [m/s] | viscosity [mPa·s]
298.15 K, x1 = 0.1031 | 1021.8 | 2.48
298.15 K, x1 = 0.1957 | 1150.9 | 3.2
298.15 K, x1 = 0.4905 | 1463.6 | 6.07
298.15 K, x1 = 0.5915 | 1544.5 | 7.25
298.15 K, x1 = 0.6943 | 1614.6 | 8.56
298.15 K, x1 = 0.7956 | 1673.5 | 9.95
298.15 K, x1 = 0.8915 | 1730.2 | 11.36
298.15 K, x1 = 1 | 1786.7 | 13.09
303.15 K, x1 = 0.1957 | 1137.7 | 2.81
303.15 K, x1 = 0.2936 | 1258.6 | 3.55
303.15 K, x1 = 0.3935 | 1366.8 | 4.39
303.15 K, x1 = 0.4905 | 1450.9 | 5.29
303.15 K, x1 = 0.6943 | 1602.2 | 7.46
303.15 K, x1 = 0.7956 | 1661.2 | 8.67
303.15 K, x1 = 0.8915 | 1717.9 | 9.91
303.15 K, x1 = 1 | 1774.6 | 11.39
308.15 K, x1 = 0.1031 | 995.3 | 1.96
308.15 K, x1 = 0.1957 | 1124.7 | 2.52
308.15 K, x1 = 0.2936 | 1245.8 | 3.17
308.15 K, x1 = 0.3935 | 1354.2 | 3.92
308.15 K, x1 = 0.4905 | 1438.3 | 4.71
308.15 K, x1 = 0.5915 | 1519.5 | 5.61
308.15 K, x1 = 0.6943 | 1590 | 6.6
308.15 K, x1 = 0.7956 | 1649.1 | 7.66
308.15 K, x1 = 1 | 1762.5 | 10
313.15 K, x1 = 0.1031 | 982.2 | 1.76
313.15 K, x1 = 0.1957 | 1111.8 | 2.27
313.15 K, x1 = 0.2936 | 1233.1 | 2.87
313.15 K, x1 = 0.3935 | 1341.7 | 3.54
313.15 K, x1 = 0.4905 | 1425.9 | 4.25
313.15 K, x1 = 0.5915 | 1507.3 | 5.04
313.15 K, x1 = 0.6943 | 1577.9 | 5.91
313.15 K, x1 = 0.7956 | 1637 | 6.83
313.15 K, x1 = 0.8915 | 1693.9 | 7.76
318.15 K, x1 = 0.1031 | 969.4 | 1.6
318.15 K, x1 = 0.3935 | 1329.4 | 3.23
318.15 K, x1 = 0.4905 | 1413.7 | 3.86
318.15 K, x1 = 0.5915 | 1495.2 | 4.57
318.15 K, x1 = 0.6943 | 1565.9 | 5.34
318.15 K, x1 = 0.7956 | 1625 | 6.15
318.15 K, x1 = 0.8915 | 1682 | 6.96
318.15 K, x1 = 1 | 1738.8 | 7.92
323.15 K, x1 = 0.1031 | 956.4 | 1.48
323.15 K, x1 = 0.1957 | 1086.4 | 1.93
323.15 K, x1 = 0.2936 | 1208.1 | 2.44
323.15 K, x1 = 0.3935 | 1317.1 | 2.99
323.15 K, x1 = 0.4905 | 1401.5 | 3.57
323.15 K, x1 = 0.5915 | 1483.2 | 4.2
323.15 K, x1 = 0.6943 | 1553.9 | 4.89
323.15 K, x1 = 0.7956 | 1613.1 | 5.6
323.15 K, x1 = 0.8915 | 1670.2 | 6.31
323.15 K, x1 = 1 | 1727.1 | 7.13
